Measured values as given in patent publication US20060127980A1, “Human excitatory amino acid transporter-2 gene promoter and uses thereof” (priority 2003, published 2006).

Key:
Format in all cases: cell-based, human
[1] = system: hEAAT2 transcription; test: Nuclear run-on assay of hEAAT2 transcription in PHFA; conditions: 7-day treatment
Protocol: (§1) FIG. 4A-D. Effect of modulators of hEAAT2 activity on hEAAT2 expression and hEAAT2 promoter activity in PHFA. A. A Northern analysis of hEAAT2 and GAPDH mRNA expression following treatment with EGF (30 ng/ml), TGF-α (30 ng/ml), dbcAMP (200 μM, bromo-cAMP (100 μM) or TNF-α (200 U/ml) for 7 days. B. Nuclear run-on assays determining the relative rates of hEAAT2 and GAPDH transcription as a function of 7-day treatment with the same concentrations of the indicated agents. C. A time course of mRNA expression of hEAAT2 and GAPDH following treatment with EGF, bromo-cAMP or TNF-α (same concentrations as in A.). D. Fold luciferase activity in PHFA transfected with flhEAAT2Prom-luc or various deletion mutants of hEAAT2 and non-transfected controls treated with the indicated compounds for four days.
Primer Extension Analysis and Nuclear Run-on Assays. Primer extension assays were performed as described (Su et al., 2000, Oncogene 19(30):3411-3421). A primer with the sequence 5′-[…]-3′ (SEQ ID NO:6) complementary to the 5′ UTR of the hEAAT2 cDNA was used for this assay. Nuclear run-on assays were performed as described (Su et al., 1997, Proc Natl Acad Sci USA 94(17):9125-9130).
To examine whether stimulation of hEAAT2 expression involves transcriptional changes, nuclear run-on assays were performed.

[2] = system: hEAAT2 promoter; test: flhEAAT2Prom-luc and deletion mutant luciferase reporter assay in PHFA treated with modulators; conditions: four day treatment
Protocol: as §1
Construction of hEAAT2 Promoter Deletion Mutants and Performance of the Luciferase Assays. 5′-deletion mutants of the hEAAT2 promoter were made with exonuclease III digestion using the Erase-A-Base System (Promega) as described for the PEG-3 promoter (Su et al., 2000, Oncogene 19(30):3411-3421). The flhEAAT2Prom-luc and flhEAAT2Prom-luc deletion mutants were cloned into the pGL3-basic luciferase reporter vector (Promega) and luciferase reporter assays were performed as described (Su et al., 2000, Oncogene 19(30):3411-3421; Su et al., 2001, Nucleic Acids Res 29(8):1661-1671), except that instead of using lipofectamine, which was toxic to PHFA, the calcium phosphate precipitation transfection technique was used (Babiss et al., 1986, Proc Natl Acad Sci USA 83(7):2167-2171).
Preferential Expression of the hEAAT2 Promoter in PHFA and Deletion Analysis of the hEAAT2 Promoter. hEAAT2 is expressed in brain-derived cells, mainly astrocytes (Tanaka et al., 1997, Science 276(5319):1699-1702; Anderson et al., 2000, Glia 32(1):1-14). Experiments were performed to confirm hEAAT2 promoter activity in normal human astrocytes and to determine expression levels in other cell types (FIG. 2A). Primary early passage and established human normal and tumor cell lines were co-transfected with a putative full-length ˜2.5 kb hEAAT2 promoter, a SacII fragment extending from bp −2426 to bp +44, was cloned into the pGL3-basic vector (Promega), where it drove expression of the firefly luciferase (luc) gene, and a pSV-β-galactosidase expression plasmid. Relative fold expression of a full length hEAAT2 promoter-luciferase (flhEAAT2Prom-luc) construct was determined as described (Su et al., 2000, Oncogene 19(30):3411-3421; Su et al., 2001, Nucleic Acids Res 29(8):1661-1671), and activity versus transfection with a pSV-β-galactosidase plasmid was calculated as described (Su et al., 2000, Oncogene 19(30):3411-3421; Su et al., 2001, Nucleic Acids Res 29(8):1661-1671) to equalize for differences in transfection efficiency.
To examine further the relationship between hEAAT2 and treatment with the various glutamate transporter modulators, transient transfection assays were performed in PHFA using the flhEAAT2Prom-luc constructs and various deletions thereof (FIG. 4D). […] In the case of dbcAMP, promoter activity was enhanced by ˜3-fold.

[3] = system: hEAAT2 promoter; test: hEAAT2 promoter luciferase assay of agents in PHFA-Im (FIG. 11); conditions: 10 μM
Protocol: (§2) FIG. 11. Effect of various agents on hEAAT2 promoter activity in immortalized primary human fetal astrocytes (PHFA-Im). A: ceftriaxone; B: amoxicillin; C: chloramphenicol; D: thiamphenicol; E: vancomycin; F: glycine; G: glutamate; H: DMSO; I: dibutyryl cAMP. PHFA-Im is a human telomerase-immortalized clone of primary human fetal astrocytes. PHFA-Im cells were seeded at 5×10^4 cells/35-mm plate. Twenty-four h later cells were untreated (CON) or received the indicated compound at a final concentration of 10 μM. Forty-eight h later the cells were transfected with a FL pGL3/EAAT2 luciferase reporter construct (5 μg) plus a pSVβGalactosidase construct (1 μg) using the calcium phosphate precipitation method (Su et al. 2003, Proc. Natl. Acad. Sci. USA 100:1955-1960). After an additional 48 h, cell lysates were prepared and luciferase activity was determined using the Luciferase Assay System Kit (Promega, E1501) and luminescence determined using a luminometer (Turner Designs, TD20/20) (Su et al. 2003, Proc. Natl. Acad. Sci. USA 100:1955-1960). Data presented are the average of 3 independent plates±S.D. Qualitatively similar results were obtained in 2 additional experiments.
as §2, with “The effects” for “FIG. 11. Effect”, “these same” for “various”, “also were examined” for “on hEAAT2 promoter activity”, “two other cell lines to confirm the generality of the findings. […] PHFA-Im is a cell line developed from a clonal isolate of a” for “immortalized”, “astrocyte immortalized by transformation with the reverse transcriptase subunit of” for “astrocytes (PHFA-Im). A: ceftriaxone; B: amoxicillin; C: chloramphenicol; D: thiamphenicol; E: vancomycin; F: glycine; G: glutamate; H: DMSO; I: dibutyryl cAMP. PHFA-Im is a”, “telomerase.” for “telomerase-immortalized clone of primary human fetal astrocytes.”

SMILES: CCCC(=O)Nc1ncnc2c1ncn2[C@@H]1O[C@@H]2COP(=O)(O)O[C@H]2[C@H]1OC(=O)CCC [dbcAMP, dibutyryl cyclic AMP]
- relative rate of transcription of hEAAT2 RNA compared with GAPDH [1]: elevated
- stimulation of promoter activity after deletion of bp −2426 to bp −703 ([2]; deletion mutant): did not significantly decrease
- upregulation of promoter activity after deletion of bp −703 to bp −326 ([2]; deletion mutant): most relevant
- upregulation of hEAAT2 promoter activity ([2]; flhEAAT2Prom-luc): ~3 fold
- hEAAT2 promoter activity [3]: potent stimulators
